Results as given in ChEMBL document CHEMBL4152326 (2018).
Activity calls are given as the source filed them. No cut-off for these calls is given here.

How the values were obtained:
Acinetobacter baumannii = assay: Antimicrobial activity against OXA-23/OXA-58 producing Acinetobacter baumannii SR27323 in presence of human apo-transferrin by broth microdilution method; type: functional
Klebsiella pneumoniae = assay: Antimicrobial activity against KPC-2 producing Klebsiella pneumoniae ATCC BAA-1705 in presence of human apo-transferrin by broth microdilution method; type: functional
Pseudomonas aeruginosa [1] = assay: Antimicrobial activity against Pseudomonas aeruginosa SR24 in presence of human apo-transferrin by broth microdilution method; type: functional
[2] = Iron chelating activity in presence of cetyltrimethylammonium bromide at pH 5.5 by chromeazurol B dye based spectrophotometric method
Pseudomonas aeruginosa [3] = assay: Antimicrobial activity against VIM-2 producing Pseudomonas aeruginosa SBRKM-28 in presence of human apo-transferrin by broth microdilution method; type: functional
Pseudomonas aeruginosa [4] = assay: Antimicrobial activity against AmpC overproducing Pseudomonas aeruginosa SR24-12 in presence of human apo-transferrin by broth microdilution method; type: functional
[5] = tested on: Stenotrophomonas maltophilia; assay: Antimicrobial activity against L-1 producing Stenotrophomonas maltophilia SR21970 in presence of human apo-transferrin by broth microdilution method; type: functional
Pseudomonas aeruginosa [6] = assay: Antimicrobial activity against IMP-1 producing Pseudomonas aeruginosa SR27001 in presence of human apo-transferrin by broth microdilution method; type: functional
Pseudomonas aeruginosa [7] = assay: Antimicrobial activity against Pseudomonas aeruginosa 27060deltaR1 harboring deletion of R1 plasmid in presence of human apo-transferrin by broth microdilution method; type: functional
Escherichia coli = assay: Antimicrobial activity against SHV-4 producing Escherichia coli ATCC BAA-200 in presence of human apo-transferrin by broth microdilution method; type: functional
Pseudomonas aeruginosa [8] = assay: Antimicrobial activity against IMP-1 producing Pseudomonas aeruginosa SR27060 in presence of human apo-transferrin by broth microdilution method; type: functional
Pseudomonas aeruginosa [9] = assay: Antibacterial activity against Pseudomonas aeruginosa SR27001 infected in Jcl:ICR mouse systemic infection model assessed as increase in mouse survival rate administered iv 1 to 5 hrs post infection measured over 7 days; type: functional

## CC(C)(O/N=C(\C(=O)N[C@@H]1C(=O)N2C(C(=O)[O-])=C(C[N+]3(CCNC(=O)c4ccc(O)c(O)c4)CCCC3)CS[C@H]12)c1csc(N)n1)C(=O)O
Acinetobacter baumannii
  MIC: 16 µg/mL
Klebsiella pneumoniae
  MIC: 0.5 µg/mL
Pseudomonas aeruginosa [1]
  MIC: 0.125 µg/mL
[2]
  Activity: Active
Pseudomonas aeruginosa [3]
  MIC: 0.25 µg/mL
Pseudomonas aeruginosa [4]
  MIC: 1 µg/mL
[5]
  MIC: 2 µg/mL
Pseudomonas aeruginosa [6]
  MIC: 2 µg/mL
Pseudomonas aeruginosa [7]
  MIC: 2 µg/mL
Escherichia coli
  MIC: 2 µg/mL
Pseudomonas aeruginosa [8]
  MIC: 2 µg/mL

## CC(C)(O/N=C(\C(=O)N[C@@H]1C(=O)N2C(C(=O)[O-])=C(C[N+]3(CCNC(=O)c4cc(Cl)c(O)c(O)c4Cl)CCCC3)CS[C@H]12)c1csc(N)n1)C(=O)O
Acinetobacter baumannii
  MIC: 0.25 µg/mL
Klebsiella pneumoniae
  MIC: 0.031 µg/mL
Pseudomonas aeruginosa [1]
  MIC: 0.125 µg/mL
[2]
  Activity: Active
Pseudomonas aeruginosa [3]
  MIC: 0.063 µg/mL
Pseudomonas aeruginosa [4]
  MIC: 0.25 µg/mL
[5]
  MIC: 0.125 µg/mL
Pseudomonas aeruginosa [6]
  MIC: 0.5 µg/mL
Pseudomonas aeruginosa [7]
  MIC: 0.5 µg/mL
Escherichia coli
  MIC: 0.5 µg/mL
Pseudomonas aeruginosa [8]
  MIC: 2 µg/mL

## CC(C)(O/N=C(\C(=O)N[C@@H]1C(=O)N2C(C(=O)[O-])=C(C[N+]3(CCNC(=O)c4cccc(O)c4O)CCCC3)CS[C@H]12)c1csc(N)n1)C(=O)O
Acinetobacter baumannii
  MIC: 1 µg/mL
Klebsiella pneumoniae
  MIC: 0.063 µg/mL
Pseudomonas aeruginosa [1]
  MIC: 0.063 µg/mL
[2]
  Activity: Active
Pseudomonas aeruginosa [4]
  MIC: 0.25 µg/mL
[5]
  MIC: 1 µg/mL
Pseudomonas aeruginosa [6]
  MIC: 4 µg/mL
Pseudomonas aeruginosa [7]
  MIC: 0.5 µg/mL
Escherichia coli
  MIC: 2 µg/mL
Pseudomonas aeruginosa [8]
  MIC: 8 µg/mL

## CC(C)(O/N=C(\C(=O)N[C@@H]1C(=O)N2C(C(=O)[O-])=C(C[N+]3(CCNC(=O)c4ccc(O)c(O)c4O)CCCC3)CS[C@H]12)c1csc(N)n1)C(=O)O
Acinetobacter baumannii
  MIC: 32 µg/mL
Klebsiella pneumoniae
  MIC: 1 µg/mL
Pseudomonas aeruginosa [1]
  MIC: 1 µg/mL
[2]
  Activity: Active
Pseudomonas aeruginosa [4]
  MIC: 2 µg/mL
[5]
  MIC: 8 µg/mL
Pseudomonas aeruginosa [6]
  MIC: 32 µg/mL
Pseudomonas aeruginosa [7]
  MIC: 4 µg/mL
Escherichia coli
  MIC: 32 µg/mL
Pseudomonas aeruginosa [8]
  MIC: 16 µg/mL

## CC(C)(O/N=C(\C(=O)N[C@@H]1C(=O)N2C(C(=O)[O-])=C(C[N+]34CCC(CNC(=O)c5ccc(O)c(O)c5Cl)(CC3)CC4)CS[C@H]12)c1csc(N)n1)C(=O)O
Pseudomonas aeruginosa [9]
  ED50: 9.42 mg/kg
Acinetobacter baumannii
  MIC: 1 µg/mL
Klebsiella pneumoniae
  MIC: 0.063 µg/mL
Pseudomonas aeruginosa [1]
  MIC: 0.25 µg/mL
Pseudomonas aeruginosa [3]
  MIC: 0.125 µg/mL
Pseudomonas aeruginosa [4]
  MIC: 0.5 µg/mL
[5]
  MIC: 0.25 µg/mL
Pseudomonas aeruginosa [6]
  MIC: 2 µg/mL
Pseudomonas aeruginosa [7]
  MIC: 1 µg/mL
Escherichia coli
  MIC: 2 µg/mL
Pseudomonas aeruginosa [8]
  MIC: 4 µg/mL

## CC(C)(O/N=C(\C(=O)N[C@@H]1C(=O)N2C(C(=O)[O-])=C(C[N+]3(CCNC(=O)c4cc(=O)c(O)c[nH]4)CCCC3)CS[C@H]12)c1csc(N)n1)C(=O)O
Pseudomonas aeruginosa [9]
  ED50: 10.2 mg/kg
Acinetobacter baumannii
  MIC: 1 µg/mL
Klebsiella pneumoniae
  MIC: 0.063 µg/mL
Pseudomonas aeruginosa [1]
  MIC: 0.25 µg/mL
[2]
  Activity: Active
Pseudomonas aeruginosa [3]
  MIC: 0.25 µg/mL
Pseudomonas aeruginosa [4]
  MIC: 0.25 µg/mL
[5]
  MIC: 0.25 µg/mL
Pseudomonas aeruginosa [6]
  MIC: 4 µg/mL
Pseudomonas aeruginosa [7]
  MIC: 1 µg/mL
Escherichia coli
  MIC: 1 µg/mL
Pseudomonas aeruginosa [8]
  MIC: 4 µg/mL

## Cc1c(C(=O)NCC[N+]2(CC3=C(C(=O)[O-])N4C(=O)[C@@H](NC(=O)/C(=N\OC(C)(C)C(=O)O)c5csc(N)n5)[C@H]4SC3)CCCC2)ccc(O)c1O
Acinetobacter baumannii
  MIC: 8 µg/mL
Klebsiella pneumoniae
  MIC: 0.25 µg/mL
Pseudomonas aeruginosa [1]
  MIC: 0.5 µg/mL
[2]
  Activity: Active
Pseudomonas aeruginosa [4]
  MIC: 1 µg/mL
[5]
  MIC: 1 µg/mL
Pseudomonas aeruginosa [6]
  MIC: 8 µg/mL
Pseudomonas aeruginosa [7]
  MIC: 2 µg/mL
Escherichia coli
  MIC: 8 µg/mL
Pseudomonas aeruginosa [8]
  MIC: 8 µg/mL

## CC(C)(O/N=C(\C(=O)N[C@@H]1C(=O)N2C(C(=O)[O-])=C(C[N+]3(CCNC(=O)c4ccc(O)c(O)c4Cl)CCCC3)CS[C@H]12)c1csc(N)n1)C(=O)O [CEFIDEROCOL]
Pseudomonas aeruginosa [9]
  ED50: 5.48 mg/kg
Acinetobacter baumannii
  MIC: 1 µg/mL
Klebsiella pneumoniae
  MIC: 0.063 µg/mL
Pseudomonas aeruginosa [1]
  MIC: 0.25 µg/mL
[2]
  Activity: Active
Pseudomonas aeruginosa [4]
  MIC: 0.5 µg/mL
Pseudomonas aeruginosa [6]
  MIC: 1 µg/mL
Pseudomonas aeruginosa [7]
  MIC: 1 µg/mL
Escherichia coli
  MIC: 1 µg/mL
Pseudomonas aeruginosa [8]
  MIC: 2 µg/mL

## CC(C)(O/N=C(\C(=O)N[C@@H]1C(=O)N2C(C(=O)[O-])=C(C[N+]3(CCNC(=O)c4cc(=O)c(O)cn4O)CCCC3)CS[C@H]12)c1csc(N)n1)C(=O)O
Pseudomonas aeruginosa [9]
  ED50: > 30 mg/kg
Acinetobacter baumannii
  MIC: 0.5 µg/mL
Klebsiella pneumoniae
  MIC: 0.063 µg/mL
Pseudomonas aeruginosa [1]
  MIC: 0.125 µg/mL
Pseudomonas aeruginosa [3]
  MIC: 0.063 µg/mL
Pseudomonas aeruginosa [4]
  MIC: 0.5 µg/mL
[5]
  MIC: 0.125 µg/mL
Pseudomonas aeruginosa [6]
  MIC: 4 µg/mL
Pseudomonas aeruginosa [7]
  MIC: 1 µg/mL
Escherichia coli
  MIC: 1 µg/mL
Pseudomonas aeruginosa [8]
  MIC: 4 µg/mL
